Data on 11 compounds can be found in ChEMBL document CHEMBL4359892, “Discovery of novel indolylarylsulfones as potent HIV-1 NNRTIs via structure-guided scaffold morphing” (Eur J Med Chem, 2019).

The test system of series [1] is Human immunodeficiency virus 1. Kind of series: Antiviral activity against HIV-1 3B infected in human MT4 cells assessed as reduction in virus-induced cytopathic effect incubated for 5 days by MTT assay. Type of series: functional, organism-based. The following applies: Human immunodeficiency virus 1, 3B, MT4, 120 h. For orientation: Damage to the host cells serves as the signal in cytopathic effect assays.

In series [2] the test system is Human immunodeficiency virus 1. Briefly: Antiviral activity against drug resistant HIV-1 harboring reverse transcriptase Y188L mutant infected in human MT4 cells assessed as reduction in virus-induced cytopathic effect incubated for 5 days by MTT assay. Type of series: functional, organism-based. The following applies: Human immunodeficiency virus 1, MT4, 120 h.
The nature of series [3]: Selectivity index, ratio of CC50 for human MT4 cells to EC50 for antiviral activity against HIV RES056. It counts as toxicity. The following applies: read-out: Ratio CC50/EC50.
In series [4] the test system is Human immunodeficiency virus 1. Briefly: Antiviral activity against drug resistant HIV-1 harboring reverse transcriptase K103N mutant infected in human MT4 cells assessed as reduction in virus-induced cytopathic effect incubated for 5 days by MTT assay. Type of series: functional, organism-based. The following applies: Human immunodeficiency virus 1, MT4, 120 h.
Series [5] relates to Human immunodeficiency virus 1. Briefly: Antiviral activity against drug resistant HIV-1 harboring reverse transcriptase F227L/V106A double mutant infected in human MT4 cells assessed as reduction in virus-induced cytopathic effect incubated for 5 days by MTT assay. Type of series: functional, organism-based. As to conditions: Human immunodeficiency virus 1, MT4, 120 h.
For series [6], the system named is Human immunodeficiency virus 1. Briefly: Antiviral activity against drug resistant HIV-1 RES056 harboring reverse transcriptase K103N/Y181C double mutant infected in human MT4 cells assessed as reduction in virus-induced cytopathic effect incubated for 5 days by MTT assay. It counts as functional, organism-based. The following applies: Human immunodeficiency virus 1, RES056, MT4, 120 h.

Series [7] concerns Human immunodeficiency virus 1. Briefly: Antiviral activity against drug resistant HIV-1 harboring reverse transcriptase L100I mutant infected in human MT4 cells assessed as reduction in virus-induced cytopathic effect incubated for 5 days by MTT assay. As to conditions: Human immunodeficiency virus 1, MT4, 120 h. It counts as functional, organism-based.
The nature of series [8]: Selectivity index, ratio of CC50 for human MT4 cells to EC50 for antiviral activity against HIV IIIB. It counts as toxicity. The following applies: read-out: Ratio CC50/EC50.
Series [9] relates to Human immunodeficiency virus 1. Kind of series: Antiviral activity against drug resistant HIV-1 harboring reverse transcriptase E138K mutant infected in human MT4 cells assessed as reduction in virus-induced cytopathic effect incubated for 5 days by MTT assay. The following applies: Human immunodeficiency virus 1, MT4, 120 h. Type of series: functional, organism-based.
Series [10] can be described thus: Cytotoxicity against human MT4 cells assessed as reduction in cell viability incubated for 5 days by MTT assay. It counts as cell-based. On the technique in general: Formazan colour is commonly taken as a measure of viable cells.
Series [11] concerns Human immunodeficiency virus 1. Briefly: Antiviral activity against drug resistant HIV-1 harboring reverse transcriptase Y181C mutant infected in human MT4 cells assessed as reduction in virus-induced cytopathic effect incubated for 5 days by MTT assay. It counts as functional, organism-based. The following applies: Human immunodeficiency virus 1, MT4, 120 h.
In series [12] the target is Human immunodeficiency virus type 1 reverse transcriptase (Human immunodeficiency virus 1, UniProt Q72547). Kind of series: Inhibition of HIV1 reverse transcriptase assessed as inhibition of biotin-dUTP incorporation into template incubated for 1 hr by ELISA. (An ELISA detects its analyte on a solid surface through an enzyme-linked reagent.)
The subject of series [13] is Human immunodeficiency virus 1. Briefly: Potency index, ratio of EC50 of AZT to EC50 of compound for antiviral activity against HIV-1 3B infected in human MT4 cells assessed as reduction in virus-induced cytopathic effect incubated for 5 days by MTT assay. It counts as functional.
Series [14] has as its system Human immunodeficiency virus 1. Briefly: Potency index, ratio of EC50 of NVP to EC50 of compound for antiviral activity against HIV-1 3B infected in human MT4 cells assessed as reduction in virus-induced cytopathic effect incubated for 5 days by MTT assay. Type of series: functional.
Series [15] can be described thus: Sub-acute toxicity in Kunming mouse assessed as increase in alveolar interstitial thickening administered for 14 days measured on day 14 by HE-staining based assay. As to conditions: in vivo, 336 h.
The nature of series [16]: Sub-acute toxicity in Kunming mouse assessed as increase in proximal convoluted tubule edema administered for 14 days measured on day 14 by HE-staining based assay. As to conditions: in vivo, 336 h.
Series [17] is described as follows: Sub-acute toxicity in Kunming mouse assessed as increase in alveolar hemorrhage administered for 14 days measured on day 14 by HE-staining based assay. As to conditions: in vivo, 336 h.

On to `Cc1cc(C)cc(S(=O)(=O)c2c(C(=O)NS(=O)(=O)c3ccc(F)cc3)[nH]c3ccc(Cl)cc23)c1`, for which the EC50 is 2.95 µM in [1]; > 253 µM in series [2]; 21.6 µM in series [4]; 38.6 µM in series [5]; > 253 µM in series [6]; 10 µM in [7]. For the same compound, the results for the concentration giving a half-maximal response (EC50) in [9] and in [11] were 3.78 µM and 45.8 µM, respectively. The figures for the selectivity ratio in [3] and in series [8] were < 1 and > 86, respectively. Further, the CC50 at 120 h in series [10] was > 253 µM.
For the compound `Cc1cc(C)cc(S(=O)(=O)c2c(C(=O)N[C@H]3CCN(S(C)(=O)=O)C3)[nH]c3ccc(Cl)cc23)c1`, the IC50 in series [12] worked out at 0.61 µM. The EC50 was 0.0043 µM in [1] and > 29.9 µM in series [6]. Moreover, the selectivity ratio in series [3] was < 1; in [8], 7080. Moreover, the “Ratio EC50” value in series [13] is 2.3; in [14] it was 60. Also, the CC50 at 120 h in series [10] is 29.9 µM.
In the case of `CCOP(=O)(CCNC(=O)c1[nH]c2ccc(Cl)cc2c1S(=O)(=O)c1cc(C)cc(C)c1)OCC`, the EC50 is 1.31 µM in [1]; > 131 µM in series [2]; 3.43 µM in [4]; 7.25 µM in series [5]; > 131 µM in series [6]; 6.81 µM in series [7]. Also, the EC50 was determined as 1.2 µM in series [9] and 6.71 µM in [11]. For the same compound, the results for the selectivity ratio in series [3] and in series [8] were < 1 and 100, respectively. The CC50 at 120 h in series [10] was determined as 131 µM.
Turning to `Cc1cc(C)cc(S(=O)(=O)c2c(C(=O)NS(=O)(=O)C(F)(F)F)[nH]c3ccc(Cl)cc23)c1`, the concentration giving a half-maximal response (EC50) in series [1] was 0.36 µM; in series [2], > 141 µM; in [4], 2.48 µM; in series [5] it was 3.53 µM; in series [6] it was > 141 µM; in series [7], 1.41 µM. The EC50 in [9] came out at 0.92 µM; in series [11] it was 5.51 µM. Also, the selectivity ratio in series [3] was < 1; in [8], 393. Moreover, in series [10], the CC50 at 120 h was 141 µM.
As for `Cc1cc(C)cc(S(=O)(=O)c2c(C(=O)N[C@@H]3CCN(S(C)(=O)=O)C3)[nH]c3ccc(Cl)cc23)c1`, the EC50 in [1] was determined as 0.0047 µM; in series [6] it was 7.66 µM. Besides, the selectivity ratio in series [3] came to 3; in [8], 5190. For the same compound, the “Ratio EC50” value in [13] came out at 2.1; in series [14] it was 55. Besides, the CC50 at 120 h in series [10] turned out to be 23.9 µM.
As to `Cc1cc(C)cc(S(=O)(=O)c2c(C(=O)N[C@@H]3CCN(CC(N)=O)C3)[nH]c3ccc(Cl)cc23)c1`, the IC50 in series [12] is 1.49 µM. Further, the EC50 in series [1] was 0.0098 µM; in [6], > 31 µM. Also, the selectivity ratio was < 1 in series [3] and 3170 in series [8]. Also, the CC50 at 120 h in series [10] came out at 31 µM.
As to `Cc1cc(C)cc(S(=O)(=O)c2c(C(=O)NS(=O)(=O)c3ccc(F)cc3F)[nH]c3ccc(Cl)cc23)c1`, the EC50 in series [1] was 3.23 µM; in series [2], > 121 µM; in series [4], 15 µM; in series [5] it was 30 µM; in series [6], > 121 µM; in [7] it was 8.86 µM. Further, the values for the 50% effective concentration (EC50) in series [9] and in series [11] were 4.04 µM and > 121 µM, respectively. Besides, the figures for the selectivity ratio in [3] and in series [8] were < 1 and 37, respectively. The CC50 at 120 h in series [10] amounted to 121 µM.
Turning to `Cc1cc(C)cc(S(=O)(=O)c2c(C(=O)NS(=O)(=O)c3ccccc3)[nH]c3ccc(Cl)cc23)c1`, the EC50 was 1.73 µM in [1]; > 167 µM in [2]; 3.23 µM in [4]; 7.4 µM in series [5]; > 167 µM in [6]; 2.17 µM in series [7]. The EC50 in [9] was 2.01 µM; in series [11], 5.33 µM. In addition, the values for the selectivity ratio in [3] and in [8] were < 1 and 96, respectively. Also, in series [10], the CC50 at 120 h is 167 µM.
Turning to `Cc1cc(C)cc(S(=O)(=O)c2c(C(N)=O)[nH]c3ccc(Cl)cc23)c1`, in series [12], the IC50 amounted to 0.56 µM. The EC50 in series [1] is 0.0041 µM; in series [4] it was 0.018 µM; in series [5], 0.0096 µM; in [6], > 13 µM; in [7], 0.017 µM; in series [9], 0.91 µM. For the same compound, the EC50 in series [11] came to 0.027 µM. The selectivity ratio is < 1 in [3] and 3130 in [8]. Besides, the CC50 at 120 h in series [10] was found to be 13 µM.
On to `Cc1cc(C#N)cc(C)c1Oc1nc(Nc2ccc(C#N)cc2)nc(N)c1Br` [ETRAVIRINE], for which the EC50 in series [1] was 0.0058 µM; in [2], 0.023 µM; in series [4], 0.0029 µM; in series [5] it was 0.016 µM; in series [6], 0.019 µM; in series [7], 0.0062 µM. For the same compound, the EC50 came to 0.006 µM in series [9] and 0.013 µM in series [11]. In addition, the selectivity ratio in [3] was > 238; in series [8] it was > 792. Moreover, the Activity entry in series [15], in series [16] and in series [17] was “Toxic” each time. Further, in series [10], the CC50 at 120 h is > 4.61 µM.
With `Cc1cn([C@H]2C[C@H](N=[N+]=[N-])[C@@H](CO)O2)c(=O)[nH]c1=O` [ZIDOVUDINE], the EC50 in series [1] is 0.01 µM; in series [2] it was 0.0075 µM; in series [4], 0.012 µM; in series [5] it was 0.0049 µM; in series [6] it was > 28.1 µM; in series [7], 0.0049 µM. Further, the figures for the EC50 in series [9] and in [11] were 0.012 µM and 0.0079 µM, respectively. Moreover, the selectivity ratio was > 645 in series [3] and > 714 in [8]. Also, the CC50 at 120 h in [10] is > 7.49 µM.

In general, EC50 refers to the concentration giving half of the maximal effect. In general, CC50 refers to the concentration that lowers cell viability or growth by half. What is called IC50 is the concentration that gives 50% inhibition.
